The results in this text go back to ChEMBL document CHEMBL1125524, “Adenosine A1 antagonists. 2. Structure-activity relationships on diuretic activities and protective effects against acute renal failure” (J Med Chem, 1992).

As a reminder, the inhibition in vivo is the change of the read-out against control, counted positive when it falls. The Ki is the dissociation constant of the complex between target and ligand, obtained from inhibition or displacement. Read a low Ki as a stronger hold on the target.

In assay [1] the test system is Rattus norvegicus. The assay can be described thus: Oral diuretic activity was measured after oral administration of 25 mg/kg to rats(control volume is 0.76+/-0.01). Format: functional, Urine.
The test system of assay [2] is Rattus norvegicus. The assay can be described thus: Percent inhibition of serum creatinine by the compound given as ratio of Cr value in treated to vehicle treated ones after intraperitoneal administration of 10 mg/kg of compound to rats(vehicle 4.38+/-0.17). It is filed as functional. Conditions: ip.
In assay [3] the test system is Rattus norvegicus. Kind of assay: Ratio of urinary excretion value (urinary volume) in treated rats to that in control rats, at a peroral dose of 25 mg/Kg. It is filed as functional, Urine.
Assay [4] has as its system Rattus norvegicus. Kind of assay: Serum creatinine concentration measured after intraperitoneal administration of 10 mg/kg of compound to rats(vehicle 4.38+/-0.17). Format: functional.
Assay [5] concerns Rattus norvegicus. The assay can be described thus: Percent inhibition of Urea nitrogen by the compound given as ratio of UN value in treated to vehicle treated ones after intraperitoneal administration of 10 mg/kg of compound to rats(vehicle 164.3+/-4.9). It is filed as functional. Conditions: ip.
In assay [6] the test system is Rattus norvegicus. The assay can be described thus: Effect on urinary excretion potassium and sodium after oral administration of 25 mg/kg to rats(potassium and sodium excretion in control rat is 0.160+/-0.006). Format: functional, Urine.
For another assay, the target named is Adenosine A2 receptor (Rattus norvegicus, UniProt P29276+P30543).
Assay [7] concerns Rattus norvegicus. Kind of assay: Ratio of urinary excretion value (Na+ concentration) in treated rats to that in control rats, at a peroral dose of 25 mg/Kg. It is filed as functional, Urine.
In assay [8] the test system is Rattus norvegicus. Kind of assay: Urea nitrogen concentration measured after intraperitoneal administration of 10 mg/kg of compound to rats(vehicle 164.3+/-4.9). It is filed as functional.
The test system of assay [9] is Rattus norvegicus. Kind of assay: Ratio of sodium ion/potassium ion concentration in treated rats to that in control rats, at a peroral dose of 25 mg/Kg. It is filed as functional.
Assay [10] concerns Rattus norvegicus. The assay can be described thus: Percent inhibition of Urea nitrogen by the compound given as ratio of UN value in treated to vehicle treated ones after intraperitoneal administration of 10 mg/kg of compound to rats(vehicle 138.4+/-9.8). Format: functional. Conditions: ip.
The test system of assay [11] is Rattus norvegicus. The assay can be described thus: Oral diuretic activity was measured after oral administration of 25 mg/kg to rats(control volume is 0.87+/-0.04). It is filed as functional, Urine.
Assay [12] relates to Rattus norvegicus. The assay can be described thus: Percent inhibition of serum creatinine by the compound given as ratio of Cr value in treated to vehicle treated ones after intraperitoneal administration of 10 mg/kg of compound to rats(vehicle 2.89+/-0.18). Format: functional. Conditions: ip.
For assay [13], the system named is Rattus norvegicus. The assay can be described thus: Effect on urinary excretion potassium and sodium after oral administration of 25 mg/kg to rats(potassium and sodium excretion in control rat is 0.134+/-0.017). It is filed as functional, Urine.
A further assay addresses T1, Adenosine receptor A1 (Cavia porcellus, UniProt P47745).
T1 sequence (P47745 whole entry): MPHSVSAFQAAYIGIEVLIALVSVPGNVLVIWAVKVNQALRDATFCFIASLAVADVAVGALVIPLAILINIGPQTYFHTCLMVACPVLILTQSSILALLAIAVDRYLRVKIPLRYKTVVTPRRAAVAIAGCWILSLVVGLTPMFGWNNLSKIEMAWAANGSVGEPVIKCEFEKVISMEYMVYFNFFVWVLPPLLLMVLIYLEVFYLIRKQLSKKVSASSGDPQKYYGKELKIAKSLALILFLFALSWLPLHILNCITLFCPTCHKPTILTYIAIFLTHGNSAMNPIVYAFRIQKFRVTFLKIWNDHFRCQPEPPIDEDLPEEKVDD

The test system of assay [14] is Rattus norvegicus. Kind of assay: Percent inhibition of Urea nitrogen by the compound given as ratio of UN value in treated to vehicle treated ones after intraperitoneal administration of 1 mg/kg of compound to rats(vehicle 107.7+/-15.2). Format: functional. Conditions: ip.
Assay [15] concerns Rattus norvegicus. Kind of assay: Serum creatinine concentration measured after intraperitoneal administration of 1 mg/kg of compound to rats(vehicle 2.89+/-0.42). Format: functional.
In assay [16] the test system is Rattus norvegicus. Kind of assay: Urea nitrogen concentration measured after intraperitoneal administration of 10 mg/kg of compound to rats(vehicle 138.4+/-9.8). Format: functional.
The test system of assay [17] is Rattus norvegicus. The assay can be described thus: Serum creatinine concentration measured after intraperitoneal administration of 10 mg/kg of compound to rats(vehicle 2.89+/-0.18). Format: functional.
Assay [18] has as its system Rattus norvegicus. The assay can be described thus: Percent inhibition of serum creatinine by the compound given as ratio of Cr value in treated to vehicle treated ones after intraperitoneal administration of 1 mg/kg of compound to rats(vehicle 2.89+/-0.42). Conditions: ip. Format: functional.
Assay [19] relates to Rattus norvegicus. The assay can be described thus: Ratio of urinary excretion value (Na+ concentration) in treated rats to that in control rats, at a peroral dose of 6.25 mg/Kg. Format: functional, Urine.
In assay [20] the test system is Rattus norvegicus. Kind of assay: Urea nitrogen concentration measured after intraperitoneal administration of 1 mg/kg of compound to rats(vehicle 107.7+/-15.2). It is filed as functional.
Assay [21] relates to Rattus norvegicus. The assay can be described thus: Ratio of urinary excretion value (urinary volume) in treated rats to that in control rats, at a peroral dose of 6.25 mg/Kg. It is filed as functional, Urine.

Description for Adenosine receptor A1: Binding affinity against adenosine A1 receptor in guinea pig forebrain membranes using N6-[3H]cyclohexyladenosine as radioligand

Molecule `CCCn1c(=O)c2c(nc(C(C3CC3)C3CC3)n2CCC)n(CCC)c1=O` returned a Urine volume in the assay with Rattus norvegicus [1] of 1.12 ml 6hr-1 100g-1. Moreover, the inhibition in vivo at 10 mg/kg in the assay with Rattus norvegicus [2] is 7%; in the assay with Rattus norvegicus [5], 3%. Further, the results for the T/C in the assay with Rattus norvegicus [3] and in the assay on Rattus norvegicus [7] were 1.47 and 1.18, respectively. The Cr in the assay on Rattus norvegicus [4] amounted to 4.09 mg/dL. The molecule also displayed a Na in the assay with Rattus norvegicus [6] of 0.188 m equiv 6hr-1 100g-1. In addition, on Adenosine A2 receptor, the Ki came out at 6300 nM. Further, the UN in the assay with Rattus norvegicus [8] amounted to 159.2 mg/dL. Moreover, in the assay on Rattus norvegicus [9], the “Na+/K+” value is 0.92.

As to `FC(F)(F)c1nnc2c(NC3CCCC3)nc3ccccc3n12`, the inhibition in vivo at 10 mg/kg in the assay on Rattus norvegicus [10] was 62%; in the assay with Rattus norvegicus [12] it was 48%. This molecule also registered a Urine volume in the assay on Rattus norvegicus [11] of 1.86 ml 6hr-1 100g-1. For the same molecule, in the assay with Rattus norvegicus [13], the Na was determined as 0.314 m equiv 6hr-1 100g-1. For the same molecule, the Ki is 76 nM on Adenosine receptor A1 and 1300 nM at Adenosine A2 receptor. Further, the inhibition in vivo at 1 mg/kg was determined as 15% with Rattus norvegicus [14] and 10% in the assay on Rattus norvegicus [18]. The T/C with Rattus norvegicus [3] worked out at 2.13; with Rattus norvegicus [19] it was 1.1; in the assay on Rattus norvegicus [21] it was 0.92; in the assay with Rattus norvegicus [7], 1.55. In addition, the Cr worked out at 2.6 mg/dL in the assay on Rattus norvegicus [15] and 1.52 mg/dL with Rattus norvegicus [17]. Further, the UN was 58.9 mg/dL in the assay with Rattus norvegicus [16] and 92 mg/dL in the assay with Rattus norvegicus [20]. Further, the “Na+/K+” value in the assay with Rattus norvegicus [9] worked out at 1.71.
